From patent US20250144067A1, “PERSONALIZED STARVATION THERAPY FOR CANCER” (Faeth Therapeutics, Inc., priority 2021, published 2025)
Counter-ions that a name gives are not always drawn. Like-named read-outs stand apart in the source and are kept apart here.

Experiments:
[1] = system: NCI-H292 lung cancer cells; test: FDA drug screening, complete media vs cholesterol-free media without statin (TABLE 1); type: cell-based, human
[2] = system: NCI-H292 lung cancer cells; test: FDA drug screening, complete media vs cholesterol-free media with simvastatin (TABLE 2); type: cell-based, human
[3] = Complete minus Cholesterol-free, >0 enhanced anti-cancer activity, about 0 neutral, <0 antagonist
[4] = NCI-H292 cells, cholesterol-free media without statin, FDA drug library screen
[5] = NCI-H292 cells, complete media, FDA drug library screen
[6] = NCI-H292 cells, cholesterol-free media with simvastatin 0.04 μM, cell growth value in FDA drug screen
[7] = NCI-H292 cells, complete media, cell growth value in FDA drug screen
[8] = complete media minus cholesterol-free media + simvastatin, >0 enhanced anti-cancer activity, about 0 neutral, <0 antagonist
[9] = NCI-H292 cells, FDA drug library screen, cholesterol-free media with simvastatin 0.04 μM
[10] = NCI-H292 cells, FDA drug library screen, complete media
[11] = Complete minus Cholesterol-free, greater than 0 enhanced anti-cancer activity, about 0 neutral, below 0 antagonist
[12] = NCI-H292 cells, FDA drug library screen, cholesterol-free media without statin
[13] = NCI-H292 cells, cholesterol-free media with simvastatin 0.04 μM, FDA drug library screen (TABLE 2)
[14] = NCI-H292 cells, complete media, FDA drug library screen (TABLE 2)
[15] = complete media minus cholesterol-free media + simvastatin (0.04 μM), >0 enhanced anti-cancer activity, about 0 neutral, <0 antagonist
[16] = complete vs cholesterol-free media, >0 enhanced anti-cancer activity, about 0 neutral, <0 antagonist
[17] = complete media vs cholesterol-free media + simvastatin (0.04 μM), >0 enhanced anti-cancer activity, about 0 neutral, <0 antagonist
[18] = Complete minus Cholesterol-free, greater than 0 enhanced anti-cancer activity, about 0 neutral, below 0 antagonists
[19] = NCI-H292 cells in cholesterol-free media without statin
[20] = NCI-H292 cells in complete media
[21] = NCI-H292 cells, FDA library drug in cholesterol-free media with simvastatin 0.04 μM
[22] = NCI-H292 cells, FDA library drug in complete media

For `CS(=O)(=O)CCNCc1ccc(-c2ccc3ncnc(Nc4ccc(OCc5cccc(F)c5)c(Cl)c4)c3c2)o1` [Lapatinib], the Difference [1, 3] was −0.07, the Cholesterol-free [1, 4] was 0.3435 and the Complete [1, 5] was 0.2753. The “Cholesterol-free media + simvastatin (0.04 μM)” value [2, 6] was 0.4073, the “Complete Media” value [2, 7] was 0.4535 and the Difference [2, 8] was 0.05.

In the case of `Br.CCN1C[C@]2(OC(=O)c3ccccc3NC(C)=O)CC[C@H](OC)[C@@]34[C@@H]2C[C@@H]([C@@H]13)[C@@]1(O)C[C@H](OC)[C@H]2C[C@@H]4[C@]1(O)[C@H]2OC` [Lappaconitine (hydrobromide)], the Difference ([1]; Complete minus Cholesterol-free, […]) is reported as −0.05, the Cholesterol-free [1, 4] is reported as 1.017 and the Complete [1, 5] is reported as 0.9704. For the same compound, the “Cholesterol-free media + simvastatin (0.04 μM)” value [2, 9] was 1.123, the “Complete Media” value [2, 10] was 1.322 and the Difference ([2]; complete media minus cholesterol-free media + simvastatin, […]) was 0.20.

`CCN(C(=O)c1c(O)c2c(Cl)cccc2n(C)c1=O)c1ccccc1` [Laquinimod] showed a Difference [1, 11] of −0.15, a Cholesterol-free [1, 12] of 1.127 and a Complete [1, 10] of 0.9797. The “Cholesterol-free media + simvastatin (0.04 μM)” value [2, 13] was 1.3, the “Complete Media” value [2, 14] was 1.306 and the Difference [2, 15] was 0.01.

Compound `CS(=O)(=O)c1cc(F)cc2c3c(n(Cc4ccc(Cl)cc4)c12)[C@@H](CC(=O)O)CC3` [Laropiprant] has a Cholesterol-free [1] of 1.338, a Complete [1] of 1.092 and a Difference [1] of −0.25. For the same compound, the “Cholesterol-free media + simvastatin (0.04 μM)” value [2] was 0.8957, the “Complete Media” value [2] was 1.455 and the Difference [2] was 0.56.

Compound `O=C(Nc1cnn2ccc(N3CCC[C@@H]3c3cc(F)ccc3F)nc12)N1CC[C@H](O)C1` [Larotrectinib sulfate] has a Cholesterol-free [1, 4] of 1.525, a Complete [1, 5] of 1.739 and a Difference [1, 16] of 0.21. The “Cholesterol-free media + simvastatin (0.04 μM)” value ([2]; NCI-H292 cells, drug in cholesterol-free media with simvastatin 0.04 μM) was 1.922, the “Complete Media” value ([2]; NCI-H292 cells, drug in complete media) was 1.699 and the Difference [2, 17] was −0.22.

For `O=C(Nc1cnn2ccc(N3CCC[C@@H]3c3cc(F)ccc3F)nc12)N1CC[C@H](O)C1` [Larotrectinib], the Difference [1, 11] was −0.08, the Cholesterol-free [1, 12] was 1.012 and the Complete [1, 10] was 0.9305. The “Cholesterol-free media + simvastatin (0.04 μM)” value [2, 6] was 1.092, the “Complete Media” value [2, 7] was 1.143 and the Difference [2, 8] was 0.05.

For `CC(C)OC(=O)CCC/C=C\C[C@@H]1[C@@H](CC[C@@H](O)CCc2ccccc2)[C@H](O)C[C@@H]1O` [Latanoprost], the Difference [1, 18] was −0.48, the Cholesterol-free [1, 19] was 1.483 and the Complete [1, 20] was 1.005. For the same compound, the “Cholesterol-free media + simvastatin (0.04 μM)” value [2, 13] was 1.031, the “Complete Media” value [2, 14] was 0.9769 and the Difference [2, 15] was −0.05.

In the case of `O=C(CCC/C=C\C[C@@H]1[C@@H](CC[C@@H](O)CCc2ccccc2)[C@H](O)C[C@@H]1O)OCCCCO[N+](=O)[O-]` [Latanoprostene bunod], the Cholesterol-free [1, 4] is reported as 0.8229, the Complete [1, 5] is reported as 1.464 and the Difference [1, 16] is reported as 0.64. The “Cholesterol-free media + simvastatin (0.04 μM)” value [2, 9] was 1.139, the “Complete Media” value [2, 10] was 1.004 and the Difference [2, 17] was −0.14.

`Cc1ccc2c(c1)c1c(n2CCc2ccc(C)nc2)CCN(C)C1` [Latrepirdine (dihydrochloride)] gave a Difference [1, 18] of −0.58, a Cholesterol-free [1, 19] of 1.66 and a Complete [1, 20] of 1.083. For the same compound, the “Cholesterol-free media + simvastatin (0.04 μM)” value [2, 6] was 1.036, the “Complete Media” value [2, 7] was 1.07 and the Difference [2, 8] was 0.03.

In the case of `CCCCCCCCCCCCN1CCCCCC1=O` [Laurocapram], the Difference [1, 3] is reported as −0.06, the Complete [1, 5] is reported as 0.887 and the “Cholesterol-free media + simvastatin (0.04 μM)” value [2, 9] is reported as 1.036. The “Complete Media” value [2, 10] was 0.883 and the Difference [2, 17] was −0.15.

With `COC(=O)N[C@H](C(=O)N1CC2(CC2)C[C@H]1c1nc(-c2ccc3c(c2)C(F)(F)c2cc(-c4ccc5[nH]c([C@@H]6[C@H]7CC[C@H](C7)N6C(=O)[C@@H](NC(=O)OC)C(C)C)nc5c4)ccc2-3)c[nH]1)C(C)C` [Ledipasvir (acetone)] the Difference [1, 11] was −0.13, the Cholesterol-free [1, 12] was 0.5672 and the Complete [1, 10] was 0.4332. For the same compound, the “Cholesterol-free media + simvastatin (0.04 μM)” value [2, 21] was 1.383, the “Complete Media” value [2, 22] was 0.9707 and the Difference [2, 17] was −0.41.

For `COC(=O)N[C@H](C(=O)N1CC2(CC2)C[C@H]1c1nc(-c2ccc3c(c2)C(F)(F)c2cc(-c4ccc5[nH]c([C@@H]6[C@H]7CC[C@H](C7)N6C(=O)[C@@H](NC(=O)OC)C(C)C)nc5c4)ccc2-3)c[nH]1)C(C)C` [Ledipasvir], the Difference [1, 11] was −0.17, the Cholesterol-free [1, 12] was 0.5821 and the Complete [1, 10] was 0.4142. For the same compound, the “Cholesterol-free media + simvastatin (0.04 μM)” value [2, 21] was 1.189, the “Complete Media” value [2, 22] was 0.6926 and the Difference [2, 17] was −0.50.

In the case of `Cc1oncc1C(=O)Nc1ccc(C(F)(F)F)cc1` [Leflunomide], the Difference [1, 11] is reported as −0.16, the Cholesterol-free [1, 12] is reported as 0.8738 and the Complete [1, 10] is reported as 0.714. The “Cholesterol-free media + simvastatin (0.04 μM)” value [2, 13] was 0.9978, the “Complete Media” value [2, 14] was 0.949 and the Difference [2, 15] was −0.05.
